Here are results for 73 molecules from PubChem BioAssay AID1996.

Values after ≈ are worked out from the molar mass of the structure shown. A value given as a limit tells only on which side of the number the result lay.

For the data set the following is noted: buffer; pH 7.4; 200.0 µM.
Take `COCc1cc(=O)[nH]c(/N=C(\N)Nc2c(F)cccc2F)n1`: the solubility (kinetic) (as a rule, solubility judged after dilution from a stock solution rather than from solid) was determined as 40.6 µg/mL (≈ 131 µM).
Regarding `O=[N+]([O-])c1cc(C(F)(F)F)cc([N+](=O)[O-])c1N1CCCNCC1`, the solubility (kinetic) amounted to 37.9 µg/mL (≈ 113 µM).
Then `C=CCn1c(=S)sc2c(=O)[nH]cnc21`, with above 33.8 µg/mL; and `O=C(Nc1ccc(Cl)c([N+](=O)[O-])c1)ONC1=NCCCCC1`, with 42.4 µg/mL (≈ 130 µM).
With `COC(=O)c1sc(NC(=O)c2c(-c3ccccc3)noc2C)nc1C`, the kinetic solubility was 0.8 µg/mL (≈ 2.24 µM). Against the preceding molecule, the solubility kinetic is about 53-fold lower.
Take `COc1cc(C(=O)N2CCN(C3CCCCC3)CC2)cc(OC)c1OC.O=C(O)C(=O)O`: the solubility (kinetic) is above 67.9 µg/mL.
As to `O=C1CCN(Cc2ccccc2)C(=O)N1c1ccccc1`, the kinetic solubility is above 42 µg/mL.
In turn, `COc1ccc(Br)cc1CN(C)CC(=O)Nc1cccc(S(=O)(=O)N2CCCC2)c1.O=C(O)C(=O)O` showed a solubility (kinetic) of 12.9 µg/mL.
Then `NC(=O)COC(=O)c1ccc(S(=O)(=O)NCc2ccco2)cc1`, with above 50.8 µg/mL; and `CCC(=O)c1ccc(OCCn2cnc3ccccc32)cc1.Cl`, with 43.7 µg/mL.
The molecule `CCCC(=O)Oc1ccc(C2NC(=O)c3ccccc3O2)cc1OC` (stereo not drawn) gave a solubility (kinetic) of 3.9 µg/mL (≈ 11.4 µM). This solubility kinetic is about 11-fold lower than that of the molecule before.
As to `COc1ccc(-c2cc(-c3ccccc3)nc(Cl)n2)cc1OC`, the solubility (kinetic) is below 0.3 µg/mL.
Then `O=C(O)c1cn2c3c(ccc(Cl)c3c1=O)OCC2`, with above 39.8 µg/mL; and `O=C(OCC(=O)N1CCCc2ccccc21)c1cc(Cl)ccc1O`, with 3.4 µg/mL (≈ 9.83 µM).
Then `COc1ccc(C(=O)OCC(=O)NC(=O)Nc2ccccc2F)c(OC)c1`, with 2.4 µg/mL (≈ 6.38 µM); and `CC(=O)Nc1ccc(/C=C(\C#N)C(N)=O)cc1`, with 16.8 µg/mL (≈ 73.3 µM); and `O=C(CS(=O)(=O)c1ccccc1)Nc1ncc([N+](=O)[O-])s1`, with above 49.1 µg/mL.
Then `CC1CCCCN1C(=O)Cn1cnc2cc([N+](=O)[O-])ccc2c1=O` (stereo not drawn), with above 49.6 µg/mL; and `COc1ccc(C2NC(=O)CCC2[N+](=O)[O-])c(OC)c1OC` (stereo not drawn), with above 46.5 µg/mL; and `NC(=O)Cn1nc([N+](=O)[O-])nc1Oc1ccccc1F`, with above 42.2 µg/mL.
The molecule `CCOc1ccccc1Nc1nc(-c2cccnc2)cs1` gave a solubility (kinetic) of 10.6 µg/mL (≈ 35.6 µM).
For `O=C(NCCN1CCOCC1)c1cc(-c2ccc(F)cc2)nc2ccccc12`, the solubility (kinetic) came out at 23.8 µg/mL (≈ 62.7 µM). Against the preceding molecule, the solubility kinetic is about 2.2-fold higher.
Then `Cc1ccc(N2C(=O)C3C4C=CC(CC4)C3C2=O)cc1Cl` (stereo not drawn), with 1.4 µg/mL (≈ 4.64 µM).
Then `CC(CCc1ccccc1)NC(=O)CCNC(=O)c1ccccc1Cl` (stereo not drawn), with 12.3 µg/mL (≈ 34.3 µM); and `O=C(NC1CC1)C1CCN(S(=O)(=O)c2ccc(Cl)cc2)CC1`, with 41.7 µg/mL (≈ 122 µM).
Molecule `Cc1ccc(C(=O)NCCc2c[nH]c3ccccc23)c(C)c1` had a kinetic solubility of 23 µg/mL (≈ 78.7 µM).
Then `Cc1cccc(N2CCN(Cc3cnc(Cl)s3)CC2C)c1` (stereo not drawn), with 23.4 µg/mL (≈ 72.7 µM).
Then `Fc1ccc(OCCCn2ccnc2)cc1`, with 23.3 µg/mL (≈ 106 µM); and `Cc1cnc(C(=O)OCC(=O)c2ccc(C)s2)cn1`, with 41.1 µg/mL (≈ 149 µM); and `N#Cc1ccc(COC(=O)c2ccccn2)cc1`, with 30 µg/mL (≈ 126 µM).
For the molecule `CC(=O)Oc1ccc(C(c2ccc(OC(C)=O)cc2)c2ccccn2)cc1`, the solubility (kinetic) was above 54.2 µg/mL.
As for `Cc1nc2ccccc2n1CCOc1ccc(F)cc1`, the kinetic solubility turned out to be 40.1 µg/mL (≈ 148 µM).
Molecule `CC12CCC(=O)N1C(C(=O)N1CCN(c3ccc([N+](=O)[O-])cc3)CC1)CS2` (stereo not drawn) showed a kinetic solubility of 30.7 µg/mL (≈ 78.6 µM). The solubility kinetic values of the last two molecules are within 1.5-fold of each other.
Then `Cc1ccc(-c2ccc(/C=N/O)o2)cc1[N+](=O)[O-]`, with 3.4 µg/mL (≈ 13.8 µM); and `CC(=O)N1CCOCCOCCOCC1`, with above 32.6 µg/mL; and `C[C@@H](C(=O)Nc1ccccc1N1CCOCC1)N1C(=O)C2CCCCC2C1=O` (stereo partly drawn), with above 57.8 µg/mL.
Then `O=C(Cc1ccccc1)NCCc1cnc[nH]1`, with above 34.4 µg/mL.
On to `COc1ccc2cc(C#N)c(Nc3cccc(F)c3)nc2c1`, for which the kinetic solubility was below 0.2 µg/mL.
`Cc1ccc(CNC(=O)C2CCCC2)cc1`: the solubility (kinetic) was 27.5 µg/mL (≈ 127 µM).
In turn, `O=C(C1CCC(=O)N1Cc1cccs1)N1CCOCC1` (stereo not drawn) showed a solubility (kinetic) above 44.2 µg/mL.
Then `CCc1ccc(CN(C)Cc2nc(COc3ccccc3)no2)nc1`, with 36.7 µg/mL (≈ 108 µM); and `O=C(NC1=NCCCCC1)c1cccc2ccccc12`, with above 40 µg/mL; and `Cc1cccc(NC(=O)CCCCC(=O)Nc2cccc(C)c2)c1`, with below 0.3 µg/mL.
Then `Cc1ccc(CN2C(=O)C3CCCN3c3ncccc32)cc1` (stereo not drawn), with 33.3 µg/mL (≈ 114 µM); and `COC(=O)c1ccc(C(=O)NC2CCSc3ccccc32)cc1` (stereo not drawn), with 4 µg/mL (≈ 12.2 µM).
In the case of `COc1ccc(OC)c(Nc2cc(C)c3ccccc3n2)c1`, the kinetic solubility stood at 1.4 µg/mL (≈ 4.76 µM).
Then `CC(=O)Nc1cccc(NC(=S)Nc2cccc3ccccc23)c1`, with above 50.3 µg/mL.
With `Cc1nc(Nc2ccc(Cl)cc2)c2oc3ccccc3c2n1`, the kinetic solubility was below 0.2 µg/mL.
Then `O=C(NC1CC1)C1CC(=O)N(c2cccc(Cl)c2Cl)C1` (stereo not drawn), with above 47 µg/mL; and `CCN(CC)CC.COc1ccc(-n2c(=S)[nH]c3c(sc(=S)n3-c3ccccc3)c2=O)c(OC)c1`, with above 64.4 µg/mL.
Then `CCOc1ccc(Nc2nc(N)c([N+](=O)[O-])c(N3CCN(C)CC3)n2)cc1`, with 51.9 µg/mL (≈ 139 µM).
Then `Cc1ccc(NC(=O)CCN2C(=O)OC(C)(C)C2(C)O)cc1` (stereo not drawn), with 34 µg/mL (≈ 111 µM); and `CC(=O)Nc1ccc(NC(=O)C(C)OC(=O)CCSc2ccccc2Cl)cc1` (stereo not drawn), with 10.2 µg/mL (≈ 24.2 µM); and `NC(=O)CCC(NC(=O)c1ccc(Cl)cc1)C(=O)O` (stereo not drawn), with above 42.7 µg/mL.
Molecule `Cc1ccc(NC(=O)N2CCC(NC(=O)c3ccco3)CC2)cc1` registered a kinetic solubility above 49.1 µg/mL.
For `C[C@H](NC(=O)c1ccccc1)C(=O)N1CCN(c2ccccc2)CC1`, the kinetic solubility was above 50.6 µg/mL.
Take `O=C(NC(=S)N1CCCC1)c1ccccc1Cl`: the solubility (kinetic) worked out at 35.7 µg/mL (≈ 133 µM).
Then `CCCC[n+]1c(C)sc2cc(OC)ccc21.[I-]`, with 31.9 µg/mL; and `CC(=O)c1ccc(NC(=O)C(Cc2ccccc2)n2cccc2)cc1` (stereo not drawn), with 1.6 µg/mL (≈ 4.81 µM).
Then `CC1(C)CC(NC(=O)c2cccc(Cl)c2)CC(C)(C)N1`, with above 44.2 µg/mL; and `Nc1ncc2[nH]cnc2n1.O=[N+]([O-])O`, with above 29.7 µg/mL.
`COc1ccc(C2C(C#N)=C(N)Oc3cccc(O)c32)cc1` (stereo not drawn) had a kinetic solubility of 9.6 µg/mL (≈ 32.6 µM).
As for `CC(OCC(O)CN1CCCCC1CCO)c1ccc(Cl)cc1` (stereo not drawn), the solubility (kinetic) turned out to be 42.2 µg/mL (≈ 123 µM).
On to `Cc1ccc(C2C(N)C(=O)N2c2ccc(C)cc2)cc1` (stereo not drawn), for which the kinetic solubility was above 40 µg/mL.
`CC1CC(C)CN(C(=O)COC(=O)COc2ccccc2C#N)C1` (stereo not drawn) showed a kinetic solubility above 49.6 µg/mL.
For `COc1ccc(-c2cc(C(=O)OCC(=O)N3CCOCC3)c3ccccc3n2)cc1`, the kinetic solubility is 26.3 µg/mL (≈ 64.7 µM).
Consider `Cc1sc2ncnc(SCC(=O)N(C(C)C)C(C)C)c2c1C`, for which the solubility (kinetic) is 1.6 µg/mL (≈ 4.74 µM).
Then `CNC(=O)CNC(=O)Nc1ccc(C)cc1`, with above 33.2 µg/mL.
Then `Nc1nc(-c2ccc(S(=O)(=O)N3CCCCC3)cc2)cs1`, with 6.6 µg/mL (≈ 20.4 µM); and `COc1ccc2c(CC(=O)Nc3ccccc3OC)coc2c1`, with 31.4 µg/mL (≈ 101 µM); and `O=C(CSc1ccccc1)Nc1ccc2sccc2c1`, with 0.7 µg/mL (≈ 2.34 µM).
Then `CN1C(=O)C(O)(CC(=O)/C=C/c2ccco2)c2ccccc21` (stereo not drawn), with above 44.6 µg/mL.
In turn, `COc1ccc(C(=O)CSc2nc3ncccc3[nH]2)cc1OC` yielded a solubility (kinetic) of 13.4 µg/mL (≈ 40.7 µM).
